The conditions of series [1]: cited from earlier work.
For series [2] the following is noted: organic acid, octanol/water; cited from earlier work.
The conditions of series [3]: 1,000 ppm nicotine, pH 6.5.
For series [4] the following is noted: cited from earlier work. This is another data set of the same source.
The subject of another series is human buccal tissue. The following applies: nicotine solution at pH=6 relative to pH 8.1; cited from earlier work.
For series [5] the following is noted: 1,000 ppm nicotine, 2 equivalents of octanoic acid (sodium octanoate), pH 6.5.
Procedure: A pH probe was submerged in the resulting liquid and HCl (0.05 M) was added under stirring to bring the solution to pH 6.5. The flask weight was then brought up to 100 grams with RO water. […] Partitioning was performed by removing aliquots (10 mL) of each solution and placing into separate 20 ml scintillation vials. Octanol (10 ml) was added to each vial. The vials were then placed on a wrist action shaker for 20 minutes. Following agitation, the vials were allowed to separate for 30 min. and an aliquot (100 μl) of each octanol layer was removed and diluted with 900 μl octanol in 2 mL GC/MS vials.

Like-named read-outs stand apart in the source and are kept apart here.

As to `CC(/C=C/C=C(C)/C=C/C(=O)O)=C\C=C\C=C(C)\C=C\C=C(C)\C=C\C(=O)O` (stereo in doubt) [norbixin, (2E,4E,6E,8E,10E,12E,14E,16E,18E)-4,8,13,17-tetramethylicosa-2,4,6,8,10,12,14,16,18-nonaenedioic acid], the solubility in water entry in series [1] is “water soluble”.
Broadly, the logP is a log measure of how a compound divides between an organic and an aqueous phase. With `CCCCCCCS(=O)(=O)O` [1-heptanesulfonic acid], the logP in series [2] was 0.88.
Consider `O=C(O)c1ccccc1` [benzoic acid], for which, where the note is “1000 ppm nicotine in unbuffered water with 1 molar equivalent of sodium benzoate, 100 μl octanol aliquot diluted in 900 μl”, the concentration in octanol stood at 19.2 ppm. In addition, where the note is “1000 ppm nicotine, 1 molar equivalent sodium benzoate”, the “benzoic acid molarity in octanol in terms of nicotine mass” value was determined as 25.5 ppm nicotine.
Turning to `COC(=O)/C=C/C(C)=C\C=C\C(C)=C\C=C\C=C(C)\C=C\C=C(C)\C=C\C(=O)O` [bixin, (2E,4E,6E,8E,10E,12E,14E,16Z,18E)-20-methoxy-4,8,13,17-tetramethyl-20-oxoicosa-2,4,6,8,10,12,14,16,18-nonaenoic acid], the solubility in water result in series [1] is reported as “insoluble in water”.
In the case of `CC(=O)CCC(=O)O` [levulinic acid], in series [2], the logP is −0.49.
As for `CC(C)[C@@H]1CC[C@@H](C)C[C@H]1OC(=O)CCC(=O)O` [monomenthyl succinate], the lipophilicity (logP) in series [2] is 3.
`CN1CCCC1c1cccnc1` (centres unmarked) [nicotine]: the “% nicotine in octanol” value is given as about 52% in series [3] (10 eq. benzoic acid (sodium benzoate)) and about 75% in series [3] (10 eq. octanoic acid (sodium octanoate)). Moreover, the “log Ka1” value in series [4] (pyridine ring nitrogen) is listed as 3.41. Besides, the “log Ka2” value in series [4] (pyrrolidine ring nitrogen) was 8.02. For the same molecule, in the series on human buccal tissue, the “factor by which diffusion rate is reduced” value was about 7. Also, the “nicotine partitioned into octanol” value in series [5] is about 67%.
As for `CCCCCCCC(=O)O` [octanoic acid], in series [2], the logP is listed as 3.05.
`O=C(O)C(O)C(O)C(=O)O` (centres unmarked) [tartaric acid]: in series [2], the logP is listed as −1.9.
On to ethyl benzoic acid, for which the logP in series [2] is given as 2.9.
Turning to isopropyl benzoic acid, the logP in series [2] is on record as 3.5.

Values taken from patent publication US20220369688A1, “ORAL COMPOSITIONS AND RELATED METHODS FOR REDUCING THROAT IRRITATION” (NICOVENTURES TRADING LIMITED, priority 2021, published 2022).
